From US9814776B2, “Pharmaceutical preparation comprising aminopyrazole derivative” (Chugai Seiyaku Kabushiki Kaisha, priority 2013, dated 2017)
Values after ≈ are worked out from the molar mass of the structure shown.

Assay: Solubility of Compound 1 malate after 24 hours in Dissolution Test Solution 1 of the Japanese Pharmacopoeia with 5% surfactant
Type: physicochemical
Details: thermodynamic from solid
Procedure: The surfactants shown in Table 3 and Dissolution Test Solution 1 of the Japanese Pharmacopoeia were used, and the concentration of each surfactant was adjusted to 5%. Compound 1 malate was sufficiently added thereto, the mixture was stirred, and the solubility after 24 hours was measured.

Cc1nc2cc(-n3ncc(C(=O)c4cc5ccccc5[nH]4)c3N)ccc2[nH]1 [Compound 1, [5-amino-1-(2-methyl-3H-benzimidazol-5-yl)-1H-pyrazol-4-yl]-(1H-indol-2-yl)-methanone]
solubility at 24 h (pH 1.2, aqueous with cosolvent or surfactant or cyclodextrin, 5% Polyoxyethylene (10) octylphenyl ether): 145 µg/mL (≈ 406 µM) | solubility at 24 h (pH 1.2, aqueous with cosolvent or surfactant or cyclodextrin, 5% Polysorbate 80): 138 µg/mL (≈ 388 µM) | solubility at 24 h (pH 1.2, aqueous with cosolvent or surfactant or cyclodextrin, 5% Sodium lauryl sulfate): 136 µg/mL (≈ 383 µM) | solubility at 24 h (pH 1.2, simulated gastric fluid, no surfactant): 18.5 µg/mL (≈ 51.9 µM)
